Data taken from patent US7625894B2, “Pyrrolo[2,3-d]Pyrimidines as Protein Tyrosine Kinase Inhibitors” (Novartis AG, priority 2004, dated 2009).

Assays:
[1] = target: c-erbB2 tyrosine kinase (HER-2) (Homo sapiens, UniProt P04626); assay: Inhibition of c-erbB2 tyrosine kinase (HER-2); type: biochemical; set-up: dose or concentration left out as unconfirmed
Excerpt: The inhibition of c-erbB2 tyrosine kinase (HER-2) can be measured, for example, in the same way as the inhibition of EGF-R protein kinase, using known procedures.

[2] = target: T1, Bcr-Abl (Homo sapiens, UniProt P00519); assay: Test for activity against Bcr-Abl (phosphorylation ELISA in 32D-bcr/abl cells); type: cell-based, murine; conditions: 32D cells transfected with p210 Bcr-Abl; ELISA of Bcr-Abl phosphorylation; read-out: bcrabl32DcEL/ Average<32Dp210IC50 [umol l−1]>
T1 construct: host or cells: murine myeloid progenitor cell line 32Dcl3 (32D-bcr/abl); the other entry of the earlier key: BCR (P11274, Breakpoint cluster region protein)
T1 sequence (P00519 28-1130 limits assumed): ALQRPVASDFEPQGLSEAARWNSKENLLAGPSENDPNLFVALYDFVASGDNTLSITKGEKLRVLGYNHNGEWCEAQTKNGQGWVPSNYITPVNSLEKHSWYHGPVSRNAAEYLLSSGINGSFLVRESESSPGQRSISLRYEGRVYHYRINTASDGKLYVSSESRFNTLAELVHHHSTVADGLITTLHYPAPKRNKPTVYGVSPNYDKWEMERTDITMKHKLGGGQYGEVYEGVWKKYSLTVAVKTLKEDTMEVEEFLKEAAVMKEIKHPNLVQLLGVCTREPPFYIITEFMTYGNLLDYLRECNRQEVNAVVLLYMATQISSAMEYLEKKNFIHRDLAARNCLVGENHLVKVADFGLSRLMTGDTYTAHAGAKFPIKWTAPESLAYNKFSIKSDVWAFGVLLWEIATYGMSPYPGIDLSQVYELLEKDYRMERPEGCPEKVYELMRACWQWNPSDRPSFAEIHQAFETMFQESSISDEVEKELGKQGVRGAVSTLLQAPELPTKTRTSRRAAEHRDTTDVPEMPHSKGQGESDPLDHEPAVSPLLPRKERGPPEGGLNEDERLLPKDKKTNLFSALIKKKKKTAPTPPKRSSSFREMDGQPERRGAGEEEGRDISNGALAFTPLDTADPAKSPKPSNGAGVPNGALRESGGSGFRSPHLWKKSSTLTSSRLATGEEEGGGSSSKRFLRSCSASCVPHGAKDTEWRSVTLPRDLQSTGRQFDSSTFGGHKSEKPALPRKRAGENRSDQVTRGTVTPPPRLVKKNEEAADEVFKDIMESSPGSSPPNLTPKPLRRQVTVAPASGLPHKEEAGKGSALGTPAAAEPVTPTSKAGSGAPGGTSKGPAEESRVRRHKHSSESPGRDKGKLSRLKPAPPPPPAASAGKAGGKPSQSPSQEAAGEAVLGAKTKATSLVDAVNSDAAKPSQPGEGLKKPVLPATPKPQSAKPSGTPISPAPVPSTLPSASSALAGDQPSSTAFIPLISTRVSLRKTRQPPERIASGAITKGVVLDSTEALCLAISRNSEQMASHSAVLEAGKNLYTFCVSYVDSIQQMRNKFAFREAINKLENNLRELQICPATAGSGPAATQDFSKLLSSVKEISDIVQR
Procedure: Test for activity against Bcr-Abl. The murine myeloid progenitor cell line 32Dcl3 transfected with the p210 Bcr-Abl expression vector pGDp210Bcr/Abl (32D-bcr/abl) was obtained from J. Griffin (Dana Faber Cancer Institute, Boston, Mass., USA). The cells express the fusion Bcr-Abl protein with a constitutively active Abl kinase and proliferate growth factor independent. The cells are expanded in RPMI 1640 (AMIMED), 10% fetal calf serum, 2 mM glutamine (Gibco) (“complete medium”), and a working stock is prepared by freezing aliquots of 2×10^6 cells per vial in freezing medium (95% FCS, 5% DMSO (SIGMA)). After thawing, the cells are used during maximally 10-12 passages for the experiments.
For cellular assays, compounds are dissolved in DMSO and diluted with complete medium to yield a starting concentration of 10 μM followed by preparation of serial 3-fold dilutions in complete medium. 200,000 32D-Bcr/Abl cells in 50 μL complete medium are seeded per well in 96 well round bottom tissue culture plates. 50 μL per well of serial 3-fold dilutions of the test compound are added to the cells in triplicates. Untreated cells are used as control. The compound is incubated together with the cells for 90 min at 37° C., 5% CO2, followed by centrifugation of the tissue culture plates at 1300 rpm (Beckman GPR centrifuge) and removal of the supernatants by careful aspiration taking care not to remove any of the pelleted cells. The cell pellets are lysed by addition of 150 μL lysis buffer (50 mM Tris/HCl, pH 7.4, 150 mM sodium chloride, 5 mM EDTA, 1 mM EGTA, 1% NP-40, 2 mM sodium ortho-vanadate, 1 mM PMSF, 50 μg/mL aprotinin and 80 μg/mL leupeptin) and either used immediately for the ELISA or stored frozen in the plates at −20° C. until usage.
Black ELISA plates (Packard HTRF-96 black plates) are precoated over night at 4° C. with 50 ng/well of the rabbit polyclonal anti-abl-SH3 domain Ab 06-466 from Upstate in 50 μL PBS. After washing 3 times with 200 μL/well PBS containing 0.05% Tween20 (PBST) and 0.5% TopBlock (Juro), residual protein binding sites are blocked with 200 μL/well PBST, 3% TopBlock for 4 h at room temperature followed by incubation with 50 μL lysates of untreated or compound-treated cells (20 μg total protein per well) for 3-4 h at 4° C. After 3 washings, 50 μL/well anti-phosphotyrosine Ab PY20(AP) labeled with alkaline phosphatase (Zymed) diluted to 0.2 μg/mL in blocking buffer is added and incubated over night (4° C.). For all incubation steps the plates are covered with plate sealers (Costar). Finally, the plates are washed another three times with washing buffer and once with deionized water before addition of 90 μL/well of the AP-substrate CDPStar RTU with Emerald II. The plates, now sealed with Packard TopSeal™-A plate sealers, are incubated for 45 min at room temperature in the dark and luminescence is quantified by measuring counts per second (CPS) with a Packard Top Count Microplate Scintillation Counter (Top Count). The difference between the ELISA-readout (CPS) obtained for with the lysates of the untreated 32D-Bcr/Abl cells and the readout for the assay-background (all components, but without cell lysate) is calculated and taken as 100% reflecting the constitutively phosphorylated Bcr-Abl protein present in these cells. The activity of the compound on the Bcr-Abl kinase activity is expressed as percent reduction of the Bcr-Abl phosphorylation. The values for the IC50 and IC90 are determined from the dose response curves by graphical extrapolation.

Compound | HER-2/%-inh. [%] [1] [%] | IC50 [2] [nM]
CCN(CC)CCCNC(=O)c1ccc(-c2cc3c(N(C)C)ncnc3[nH]2)cc1 [Example 5, N-(3-Diethylamino-propyl)-4-(4-dimethylamino-7H-pyrrolo[2,3-d]pyrimidin-6-yl)-benzamide] | 78 | 
CN(C)c1ncnc2[nH]c(-c3ccc(C(=O)N4CCOCC4)cc3)cc12 [Example 6, [4-(4-Dimethylamino-7H-pyrrolo[2,3-d]pyrimidin-6-yl)-phenyl]-morpholin-4-yl-methanone] | 80 | 935
CN(C)c1ncnc2[nH]c(-c3ccc(C(=O)NCCCN4CCOCC4)cc3)cc12 [Example 7, 4-(4-Dimethylamino-7H-pyrrolo[2,3-d]pyrimidin-6-yl)-N-(3-morpholin-4-yl-propyl)-benzamide] | 71 | 917
CNc1ncnc2[nH]c(-c3ccc(C(=O)N4CCN(C)CC4)cc3)cc12 [Example 12, [4-(4-Methylamino-7H-pyrrolo[2,3-d]pyrimidin-6-yl)-phenyl]-(4-methyl-piperazin-1-yl)-methanone] | 85 | 
CN1CCN(C(=O)c2ccc(-c3cc4c(NCCCO)ncnc4[nH]3)cc2)CC1 [Example 15, {4-[4-(3-Hydroxy-propylamino)-7H-pyrrolo[2,3-d]pyrimidin-6-yl]-phenyl}-(4-methyl-piperazin-1-yl)-methanone] | 88 | 
CCCNc1ncnc2[nH]c(-c3ccc(C(=O)N4CCN(C)CC4)cc3)cc12 [Example 17, (4-Methyl-piperazin-1-yl)-[4-(4-propylamino-7H-pyrrolo[2,3-d]pyrimidin-6-yl)-phenyl]-methanone] | 87 | 1630
CCCNc1ncnc2[nH]c(-c3ccc(CN4CCN(C)CC4)cc3)cc12 [Example 18, {6-[4-(4-Methyl-piperazin-1-ylmethyl)-phenyl]-7H-pyrrolo[2,3-d]pyrimidin-4-yl}-propyl-amine] | 94 | 939
CCCN(C)c1ncnc2[nH]c(-c3ccc(CN4CCN(C)CC4)cc3)cc12 [Example 19, Methyl-{6-[4-(4-methyl-piperazin-1-ylmethyl)-phenyl]-7H-pyrrolo[2,3-d]pyrimidin-4-yl}-propyl-amine] | 89 | 2070
CN(C)c1ncnc2[nH]c(-c3ccc(Cc4ccc[nH]4)cc3)cc12 [Example 25, Dimethyl-{6-[4-(1H-pyrrol-2-ylmethyl)-phenyl]-7H-pyrrolo[2,3-d]pyrimidin-4-yl}-amine] | 39 | ≥ 10000
CCC(O)(CC)c1ccc(-c2cc3c(NCCCn4cccc4)ncnc3[nH]2)cc1 [Example 33, 3-{4-[4-(3-Pyrrol-1-yl-propylamino)-7H-pyrrolo[2,3-d]pyrimidin-6-yl]-phenyl}-pentan-3-ol] | 88 | 2430
CN(C)c1ncnc2[nH]c(-c3ccc(C(C)(C)O)cc3)cc12 [Example 34, 2-[4-(4-Dimethylamino-7H-pyrrolo[2,3-d]pyrimidin-6-yl)-phenyl]-propan-2-ol] | 57 | 944

Continued, values first:

HER-2/%-inh. [%] [1] [%] | IC50 [2] [nM] | Compound
78 | 797 | CN1CCN(C(=O)c2ccc(-c3cc4c(N(C)C)ncnc4[nH]3)cc2)CC1 [Example 3, [4-(4-Dimethylamino-7H-pyrrolo[2,3-d]pyrimidin-6-yl)-phenyl]-(4-methyl-piperazin-1-yl)-methanone]
87 | 729 | CN1CCN(Cc2ccc(-c3cc4c(N(C)C)ncnc4[nH]3)cc2)CC1 [Example 4, Dimethyl-{6-[4-(4-methyl-piperazin-1-ylmethyl)-phenyl]-7H-pyrrolo[2,3-d]pyrimidin-4-yl}-amine]
93 | 50.8 | CNc1ncnc2[nH]c(-c3ccc(CN4CCN(C)CC4)cc3)cc12 [Example 16, Methyl-{6-[4-(4-methyl-piperazin-1-ylmethyl)-phenyl]-7H-pyrrolo[2,3-d]pyrimidin-4-yl}-amine]
93 | 790 | CN(C)c1ncnc2[nH]c(-c3ccc(Cn4ccnc4)cc3)cc12 [Example 24, [6-(4-Imidazol-1-ylmethyl-phenyl)-7H-pyrrolo[2,3-d]pyrimidin-4-yl]-dimethylamine]
75 | 903 | CN(C)c1ncnc2[nH]c(-c3ccc(Cn4cnnn4)cc3)cc12 [Example 27, Dimethyl-[6-(4-tetrazol-1-ylmethyl-phenyl)-7H-pyrrolo[2,3-d]pyrimidin-4-yl]-amine]
85 | 409 | CN(C)c1ncnc2[nH]c(-c3ccc(CNCCCO)cc3)cc12 [Example 28, 3-[4-(4-Dimethylamino-7H-pyrrolo[2,3-d]pyrimidin-6-yl)-benzylamino]-propan-1-ol]
79 | 274 | COCCN(C)Cc1ccc(-c2cc3c(N(C)C)ncnc3[nH]2)cc1 [Example 29, [6-(4-{[(2-Methoxy-ethyl)-methyl-amino]-methyl}-phenyl)-7H-pyrrolo[2,3-d]pyrimidin-4-yl]-dimethyl-amine]
65 | 292 | [4-(4-Methylamino-7H-pyrrolo[2,3-d]pyrimidin-6-yl)-phenyl]-morpholin-4-yl-methanone [Example 2]
